These results are taken from ChEMBL document CHEMBL2074179, “Comparison of "type I" and "type II" organic cation transport by organic cation transporters and organic anion-transporting polypeptides” (J Pharmacol Exp Ther, 2001).

Values joined by “and” are separate entries in the source; they are usually repeats but may differ in a detail not shown here. Equal values may be shown once.

The target in data set [1] is T1, Solute carrier family 22 member 1 (Homo sapiens, UniProt O15245).
T1 sequence (O15245 whole entry): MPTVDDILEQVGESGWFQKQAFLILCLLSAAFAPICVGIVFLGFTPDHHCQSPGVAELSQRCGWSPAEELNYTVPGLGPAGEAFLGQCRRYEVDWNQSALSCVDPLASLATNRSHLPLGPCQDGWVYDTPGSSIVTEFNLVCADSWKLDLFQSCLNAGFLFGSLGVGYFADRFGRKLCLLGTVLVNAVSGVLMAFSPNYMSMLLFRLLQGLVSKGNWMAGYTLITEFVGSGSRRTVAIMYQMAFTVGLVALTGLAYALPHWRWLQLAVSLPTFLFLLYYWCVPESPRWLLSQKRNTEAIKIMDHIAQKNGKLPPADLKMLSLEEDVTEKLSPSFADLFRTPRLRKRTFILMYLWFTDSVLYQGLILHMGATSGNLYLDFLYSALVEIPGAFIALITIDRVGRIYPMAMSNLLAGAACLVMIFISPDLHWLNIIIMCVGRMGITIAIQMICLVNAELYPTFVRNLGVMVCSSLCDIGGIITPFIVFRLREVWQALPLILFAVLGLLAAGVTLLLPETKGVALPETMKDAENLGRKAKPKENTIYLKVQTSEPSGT
Nature of the data set: (§1) TP_TRANSPORTER: uptake in Xenopus laevis oocytes. Type of data set: functional, cell-based. Particulars: oocyte.

Data set [2] concerns the target T2, Solute carrier family 22 member 1 (Rattus norvegicus, UniProt Q63089).
T2 sequence (Q63089 whole entry): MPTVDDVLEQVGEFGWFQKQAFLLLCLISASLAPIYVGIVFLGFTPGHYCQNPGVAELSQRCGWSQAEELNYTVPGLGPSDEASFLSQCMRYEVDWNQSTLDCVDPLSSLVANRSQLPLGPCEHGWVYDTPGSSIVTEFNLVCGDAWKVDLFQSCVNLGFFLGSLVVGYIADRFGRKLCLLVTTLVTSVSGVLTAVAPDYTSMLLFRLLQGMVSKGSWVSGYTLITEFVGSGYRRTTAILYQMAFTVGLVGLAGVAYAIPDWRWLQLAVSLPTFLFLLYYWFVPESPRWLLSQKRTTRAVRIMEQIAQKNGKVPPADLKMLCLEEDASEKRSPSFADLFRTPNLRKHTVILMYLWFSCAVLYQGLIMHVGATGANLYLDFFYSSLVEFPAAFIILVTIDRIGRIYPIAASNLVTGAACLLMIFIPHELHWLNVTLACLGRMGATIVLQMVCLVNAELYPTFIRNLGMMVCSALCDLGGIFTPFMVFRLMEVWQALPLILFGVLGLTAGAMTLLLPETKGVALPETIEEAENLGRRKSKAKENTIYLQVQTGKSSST
The description is as §1. It is filed as functional, cell-based. Particulars: oocyte.

The target in data set [3] is T3, Solute carrier organic anion transporter family member 1A2 (Homo sapiens, UniProt P46721).
T3 sequence (P46721 whole entry): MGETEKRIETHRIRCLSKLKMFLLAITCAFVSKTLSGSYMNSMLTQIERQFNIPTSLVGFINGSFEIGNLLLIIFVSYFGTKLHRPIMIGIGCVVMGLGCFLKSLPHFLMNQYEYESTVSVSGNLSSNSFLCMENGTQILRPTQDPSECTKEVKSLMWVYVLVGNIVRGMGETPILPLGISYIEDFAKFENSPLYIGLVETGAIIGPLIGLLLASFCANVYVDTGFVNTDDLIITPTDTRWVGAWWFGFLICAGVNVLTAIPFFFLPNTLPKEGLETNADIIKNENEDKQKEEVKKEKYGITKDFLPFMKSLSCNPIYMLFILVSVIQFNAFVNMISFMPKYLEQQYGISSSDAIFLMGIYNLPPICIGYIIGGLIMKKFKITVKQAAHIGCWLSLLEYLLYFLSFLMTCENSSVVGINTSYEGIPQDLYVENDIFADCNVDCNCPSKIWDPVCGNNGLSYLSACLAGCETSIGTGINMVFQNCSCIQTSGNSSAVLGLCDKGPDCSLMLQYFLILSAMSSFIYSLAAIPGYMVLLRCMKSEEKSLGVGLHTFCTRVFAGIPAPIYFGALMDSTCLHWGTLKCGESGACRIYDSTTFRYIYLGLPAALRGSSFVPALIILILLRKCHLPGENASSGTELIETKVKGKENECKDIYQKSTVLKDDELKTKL
Put plainly: (§2) TP_TRANSPORTER: inhibition of Rocuronium uptake in Xenopus laevis oocytes. It is filed as functional, cell-based. Particulars: oocyte.

Data set [4] concerns the target T1, Solute carrier family 22 member 1. Put plainly: (§3) TP_TRANSPORTER: inhibition of TBuMA uptake in Xenopus laevis oocytes. Type of data set: functional, cell-based. The following applies: oocyte.
The target in data set [5] is T2, Solute carrier family 22 member 1. The data set is described as §3. Type of data set: functional, cell-based. The following applies: oocyte.
In data set [6] the target is T4, Solute carrier organic anion transporter family member 1A4 (Rattus norvegicus, UniProt O35913).
T4 sequence (O35913 whole entry): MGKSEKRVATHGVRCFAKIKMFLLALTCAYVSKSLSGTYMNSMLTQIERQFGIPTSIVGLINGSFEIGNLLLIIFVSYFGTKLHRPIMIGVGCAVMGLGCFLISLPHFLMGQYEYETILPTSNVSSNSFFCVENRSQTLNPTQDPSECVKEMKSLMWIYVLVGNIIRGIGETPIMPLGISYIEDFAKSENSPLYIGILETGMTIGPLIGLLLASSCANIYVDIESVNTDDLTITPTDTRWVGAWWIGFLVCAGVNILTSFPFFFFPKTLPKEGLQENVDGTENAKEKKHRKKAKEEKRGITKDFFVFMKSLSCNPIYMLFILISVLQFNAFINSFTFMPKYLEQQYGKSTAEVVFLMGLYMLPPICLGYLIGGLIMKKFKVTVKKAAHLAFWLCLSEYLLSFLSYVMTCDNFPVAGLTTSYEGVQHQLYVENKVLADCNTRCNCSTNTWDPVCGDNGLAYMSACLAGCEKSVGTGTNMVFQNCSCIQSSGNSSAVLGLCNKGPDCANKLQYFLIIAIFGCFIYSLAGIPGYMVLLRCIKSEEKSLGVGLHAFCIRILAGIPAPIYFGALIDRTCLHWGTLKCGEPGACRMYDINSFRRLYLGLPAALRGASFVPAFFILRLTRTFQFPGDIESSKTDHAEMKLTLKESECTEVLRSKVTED
The description is as §2. Type of data set: functional, cell-based. The following applies: oocyte.

Data set [7] addresses T2, Solute carrier family 22 member 1. The description is as §2. It is filed as functional, cell-based. The following applies: oocyte.
Substrate in data set [8]: CC[N+](C)(CC)CCNC(=O)c1ccc(N=[N+]=[N-])cc1
The description is as §1. It is filed as functional, cell-based, Oocyte.

Substrate in data set [9]: C=C[C@H]1C[N+]2(C)CC[C@H]1C[C@H]2[C@H](O)c1ccnc2ccc(OC)cc12
Described as §1. It is filed as functional, cell-based, Oocyte.

Substrate in data set [10]: [H][C@@]12CC[N+](C)(C[C@]1([H])C=C)[C@@]([H])([C@@H](O)c1ccnc3ccc(OC)cc13)C2
The description is as §1. Type of data set: functional, cell-based, Oocyte.

Substrate in data set [11]: CCCC[N+](C)(CCCC)CCCC
The data set is described as §1. It is filed as functional, cell-based, Oocyte.

As a reminder, the Km is the concentration of substrate that gives half-maximal velocity.

For the molecule `CC1(CCC[N+]23CCC(CC2)CC3)N=N1`, the Activity entry in data set [1] and in data set [2] was “substrate [+]” throughout.
Consider `C=C[C@H]1C[N+]2(C)CC[C@H]1C[C@@H]2[C@@H](O)c1ccnc2ccc(OC)cc12`, for which the Activity entry in data set [3], in data set [4] and in data set [5] was “inhibitor [+]” throughout.
`CC[N+](C)(CC)CCNC(=O)c1ccc(N=[N+]=[N-])cc1.[I-]` [AZIDOPROCAINAMIDE METHOIODIDE]: the Activity entry in [3], in data set [4] and in [5] was “inhibitor [+]” throughout.
Regarding `CO[C@H]1C[C@H](O[C@H]2CC[C@]3(C=O)[C@H]4CC[C@]5(C)[C@@H](C6=CC(=O)OC6)CC[C@]5(O)[C@@H]4CC[C@]3(O)C2)O[C@H](C)[C@H]1O[C@@H]1O[C@H](CO[C@@H]2O[C@H](CO)[C@@H](O)[C@H](O)[C@H]2O)[C@@H](O)[C@H](O)[C@H]1O`, the Activity entry in data set [6] and in data set [3] was “inhibitor [+]” each time.
In the case of `C=C[C@H]1C[N@@]2CC[C@H]1C[C@@H]2[C@@H](O)c1ccnc2ccc(OC)cc12` [QUINIDINE], the Activity result in data set [3], in data set [4] and in data set [5] was “inhibitor [+]” each time.
For the molecule `C=CC[N+]1([C@H]2C[C@H]3[C@@H]4CC[C@H]5C[C@H](O)[C@@H](N6CCOCC6)C[C@]5(C)[C@H]4CC[C@]3(C)[C@H]2OC(C)=O)CCCC1` [ROCURONIUM], the Activity result in data set [7] and in data set [4] was “inhibitor [+]” each time.
With `CCC1C[N+]2(CCCC3(C)N=N3)C3CC45c6ccccc6N(C)C4C2CC1C3C5O` (stereo unspecified), the Activity result in data set [1] and in data set [2] was “substrate [+]” each time.
For the molecule `C[C@@H]1O[C@@H](O[C@H]2C[C@@H](O)[C@]3(CO)[C@H]4[C@H](O)C[C@]5(C)[C@@H](C6=CC(=O)OC6)CC[C@]5(O)[C@@H]4CC[C@]3(O)C2)[C@H](O)[C@H](O)[C@H]1O` [OUABAIN], the Activity result in data set [6] was “inhibitor [+]”.

B1: Solute carrier family 22 member 1 (Rattus norvegicus) (protein)
chain: MPTVDDVLEQVGEFGWFQKQAFLLLCLISASLAPIYVGIVFLGFTPGHYCQNPGVAELSQRCGWSQAEELNYTVPGLGPSDEASFLSQCMRYEVDWNQSTLDCVDPLSSLVANRSQLPLGPCEHGWVYDTPGSSIVTEFNLVCGDAWKVDLFQSCVNLGFFLGSLVVGYIADRFGRKLCLLVTTLVTSVSGVLTAVAPDYTSMLLFRLLQGMVSKGSWVSGYTLITEFVGSGYRRTTAILYQMAFTVGLVGLAGVAYAIPDWRWLQLAVSLPTFLFLLYYWFVPESPRWLLSQKRTTRAVRIMEQIAQKNGKVPPADLKMLCLEEDASEKRSPSFADLFRTPNLRKHTVILMYLWFSCAVLYQGLIMHVGATGANLYLDFFYSSLVEFPAAFIILVTIDRIGRIYPIAASNLVTGAACLLMIFIPHELHWLNVTLACLGRMGATIVLQMVCLVNAELYPTFIRNLGMMVCSALCDLGGIFTPFMVFRLMEVWQALPLILFGVLGLTAGAMTLLLPETKGVALPETIEEAENLGRRKSKAKENTIYLQVQTGKSSST
Turning to B1, the Michaelis-Menten constant (Km) in [8] was 54 µM; in data set [9], 17.3 µM and 17 µM; in [10] it was 7.4 µM; in data set [11], 34 µM.

B2: Solute carrier family 22 member 1 (Homo sapiens) (protein)
chain: MPTVDDILEQVGESGWFQKQAFLILCLLSAAFAPICVGIVFLGFTPDHHCQSPGVAELSQRCGWSPAEELNYTVPGLGPAGEAFLGQCRRYEVDWNQSALSCVDPLASLATNRSHLPLGPCQDGWVYDTPGSSIVTEFNLVCADSWKLDLFQSCLNAGFLFGSLGVGYFADRFGRKLCLLGTVLVNAVSGVLMAFSPNYMSMLLFRLLQGLVSKGNWMAGYTLITEFVGSGSRRTVAIMYQMAFTVGLVALTGLAYALPHWRWLQLAVSLPTFLFLLYYWCVPESPRWLLSQKRNTEAIKIMDHIAQKNGKLPPADLKMLSLEEDVTEKLSPSFADLFRTPRLRKRTFILMYLWFTDSVLYQGLILHMGATSGNLYLDFLYSALVEIPGAFIALITIDRVGRIYPMAMSNLLAGAACLVMIFISPDLHWLNIIIMCVGRMGITIAIQMICLVNAELYPTFVRNLGVMVCSSLCDIGGIITPFIVFRLREVWQALPLILFAVLGLLAAGVTLLLPETKGVALPETMKDAENLGRKAKPKENTIYLKVQTSEPSGT
Regarding B2, the Michaelis-Menten constant (Km) in data set [8] is 101 µM; in data set [9] it was 19.5 µM and 20 µM; in data set [10], 11.5 µM and 12 µM; in [11], 53 µM.
